Test results from US8765721B2, “Composition comprising phosphatidyl serine and an antigen or allergen and the use thereof” (Vaccine Technology Limited, priority 2004, dated 2014).

Columns and labels:
Type in all cases: in vivo, rat
[1] = tested on: IgE; test: Ovalbumin-specific IgE ELISA of serum of immunised rats; settings: pooled group serum
Procedure: (§1) Rats were injected with vaccine compositions comprising the ovalbumin antigen with and without di-oleoyl phosphatidyl serine, lyso-oleoyl phosphatidyl serine or stearoyl(X1)-arachidonoyl(X2) phosphatidyl serine and the concentrations of IgE, IgA and IgG are compared.
(§2) The animals were acclimatised for a period of 5 days prior to dosing. During the acclimatisation period animals were observed twice daily during the working week and once on each day during the weekend to evaluate the health status of the animals. Rats were then allocated to the following dose groups using computer-generated random order numbers.
(§3) On day 0, 20 μg of ovalbumin (OA) in phosphate buffered saline (PBS) with alhydrogel (AHG) adjuvant in a final volume of 0.5 mL was administered.
(§4) On days 21 and 42, 20 μg of ovalbumin (OA) in phosphate buffered saline (PBS) with the relevant test compound in a final volume of 0.5 ml was administered.
(§5) In each case, 0.5 mL of inoculum was injected subcutaneously into the scruff of the neck.
(§6) […] A blood sample was also taken from each animal on Days 15, 22, 29, 36, 43, 50, 57 and 64.
(§7) Serum was prepared by centrifugation of the blood sample at 2,500 rpm for 10 minutes and frozen at −20° C. The samples were then analysed by ELISA to establish the concentration of IgE, IgA and IgG1, IgG2a and IgG2b.
(§8) The purpose of an ELISA is to determine whether a particular protein is present in a sample and then enables quantification of how much is present. By coating the bottom of wells with ovalbumin (OVA) it is possible to bind anti-OVA specific antibodies. To detect only anti-OVA IgA antibodies anti-rat IgA conjugated to HRP was used as a secondary antibody. Quantification of specific antibodies in the rat sera samples was performed using antibody titrations. The data was reported as endpoint titers. Endpoint titers are defined as the last serum dilution giving an optical density value equal to twice the background optical density for the ELISA plate (buffer).

[2] = tested on: IgA; test: Ovalbumin-specific IgA ELISA of serum of immunised rats; settings: pooled group serum
Procedure: as §1, §2, §3, §4, §5
On Day 0 a pre-inoculation blood sample was taken. A blood sample was also taken from each animal on Days 15, 22, 29, 36, 43, 50, 57 and 64.
as §7, §8

[3] = tested on: IgG1; test: Ovalbumin-specific IgG1 ELISA of serum of immunised rats; settings: pooled group serum
Procedure: as §1, §2, §3, §4
(§9) In each case, 0.5 mL of inoculum was injected subcutaneously into the scruff of the neck. […]
as §7
as §8, with “To detect only anti-OVA IgA antibodies anti-rat IgA conjugated to HRP was used as a secondary antibody.” left out

[4] = tested on: IgG2a; test: Ovalbumin-specific IgG2a ELISA of serum of immunised rats; settings: pooled group serum
Procedure: as §1, §2, §3, §4, §9, §7, §8

[5] = tested on: IgG2b; test: Ovalbumin-specific IgG2b ELISA of serum of immunised rats; settings: pooled group serum
Procedure: as §1, §2, §3, §4, §5, §6, §7, §8

[6] = tested on: IgE; test: Ovalbumin-specific IgE ELISA of serum of immunised rats; settings: Day 1; 250 ug with 20 μg Ova s.c. on days 21 and 42; pooled group serum
[7] = tested on: IgA; test: Ovalbumin-specific IgA ELISA of serum of immunised rats; settings: Day 1; 50 ug with 20 μg Ova s.c. on days 21 and 42; pooled group serum
[8] = Day 1, 50 ug with 20 μg Ova s.c. on days 21 and 42
[9] = Day 15, 50 ug with 20 μg Ova s.c. on days 21 and 42
[10] = Day 15, 250 ug with 20 μg Ova s.c. on days 21 and 42
[11] = Day 22, 50 ug with 20 μg Ova s.c. on days 21 and 42
[12] = Day 22, 250 ug with 20 μg Ova s.c. on days 21 and 42
[13] = Day 29, 50 ug with 20 μg Ova s.c. on days 21 and 42
[14] = Day 29, 250 ug with 20 μg Ova s.c. on days 21 and 42
[15] = Day 36, 50 ug with 20 μg Ova s.c. on days 21 and 42
[16] = Day 36, 250 ug with 20 μg Ova s.c. on days 21 and 42
[17] = Day 43, 50 ug with 20 μg Ova s.c. on days 21 and 42
[18] = Day 43, 250 ug with 20 μg Ova s.c. on days 21 and 42
[19] = Day 50, 50 ug with 20 μg Ova s.c. on days 21 and 42
[20] = Day 50, 250 ug with 20 μg Ova s.c. on days 21 and 42
[21] = Day 57, 50 ug with 20 μg Ova s.c. on days 21 and 42
[22] = Day 57, 250 ug with 20 μg Ova s.c. on days 21 and 42
[23] = Day 64, 50 ug with 20 μg Ova s.c. on days 21 and 42
[24] = Day 64, 250 ug with 20 μg Ova s.c. on days 21 and 42
[25] = Day 1, 250 ug with 20 μg Ova s.c. on days 21 and 42

Compound CCCCCCCC/C=C\CCCCCCCC(=O)OC[C@@H](O)COP(=O)(O)OC[C@H](N)C(=O)O [VT002, Lyso oleoyl phosphatidyl serine] has an IgE endpoint titer [1, 8] of 0, an IgE endpoint titer [1, 9] of 0 and an IgE endpoint titer [1, 10] of 0. It also gave an IgE endpoint titer [1, 11] of 0, an IgE endpoint titer [1, 12] of 0 and an IgE endpoint titer [1, 13] of 80. The IgE endpoint titer [1, 14] was 0, the IgE endpoint titer [1, 15] was 40 and the IgE endpoint titer [1, 16] was 20. For the same compound, the IgE endpoint titer [1, 17] was 80, the IgE endpoint titer [1, 18] was 40 and the IgE endpoint titer [1, 19] was 1280. It also gave an IgE endpoint titer [1, 20] of 640, an IgE endpoint titer [1, 21] of 320 and an IgE endpoint titer [1, 22] of 160. The IgE endpoint titer [1, 23] was 160, the IgE endpoint titer [1, 24] was 160 and the IgA endpoint titer [2, 25] was 0. The IgA endpoint titer [2, 9] was 0, the IgA endpoint titer [2, 10] was 0 and the IgA endpoint titer [2, 11] was 0. It also gave an IgA endpoint titer [2, 12] of 0, an IgA endpoint titer [2, 13] of 0 and an IgA endpoint titer [2, 14] of 0. It also gave an IgA endpoint titer [2, 15] of 160, an IgA endpoint titer [2, 16] of 80 and an IgA endpoint titer [2, 17] of 320. The IgA endpoint titer [2, 18] was 160, the IgA endpoint titer [2, 19] was 2560 and the IgA endpoint titer [2, 20] was 1280. For the same compound, the IgA endpoint titer [2, 21] was 1280, the IgA endpoint titer [2, 22] was 1280 and the IgA endpoint titer [2, 23] was 2560. The IgA endpoint titer [2, 24] was 1280, the IgG1 endpoint titer [3, 8] was 0 and the IgG1 endpoint titer [3, 25] was 0. The IgG1 endpoint titer [3, 9] was 320, the IgG1 endpoint titer [3, 10] was 640 and the IgG1 endpoint titer [3, 11] was 2560. The IgG1 endpoint titer [3, 12] was 2560, the IgG1 endpoint titer [3, 13] was 10240 and the IgG1 endpoint titer [3, 14] was 5120. For the same compound, the IgG1 endpoint titer [3, 15] was 20480, the IgG1 endpoint titer [3, 16] was 20480 and the IgG1 endpoint titer [3, 17] was 20480. The IgG1 endpoint titer [3, 18] was 10240, the IgG1 endpoint titer [3, 19] was 40960 and the IgG1 endpoint titer [3, 20] was 20480. The IgG1 endpoint titer [3, 21] was 40960, the IgG1 endpoint titer [3, 22] was 40960 and the IgG1 endpoint titer [3, 23] was 40960. The IgG1 endpoint titer [3, 24] was 40960, the IgG2a endpoint titer [4, 8] was 0 and the IgG2a endpoint titer [4, 25] was 0. For the same compound, the IgG2a endpoint titer [4, 9] was 40, the IgG2a endpoint titer [4, 10] was 80 and the IgG2a endpoint titer [4, 11] was 1280. For the same compound, the IgG2a endpoint titer [4, 12] was 640, the IgG2a endpoint titer [4, 13] was 2560 and the IgG2a endpoint titer [4, 14] was 1280. For the same compound, the IgG2a endpoint titer [4, 15] was 5120, the IgG2a endpoint titer [4, 16] was 2560 and the IgG2a endpoint titer [4, 17] was 5120. It also gave an IgG2a endpoint titer [4, 18] of 2560, an IgG2a endpoint titer [4, 19] of 20480 and an IgG2a endpoint titer [4, 20] of 20480. The IgG2a endpoint titer [4, 21] was 20480, the IgG2a endpoint titer [4, 22] was 20480 and the IgG2a endpoint titer [4, 23] was 20480. The IgG2a endpoint titer [4, 24] was 20480, the IgG2b endpoint titer [5, 8] was 0 and the IgG2b endpoint titer [5, 25] was 0. For the same compound, the IgG2b endpoint titer [5, 9] was 0, the IgG2b endpoint titer [5, 10] was 40 and the IgG2b endpoint titer [5, 11] was 0. The IgG2b endpoint titer [5, 12] was 80, the IgG2b endpoint titer [5, 13] was 160 and the IgG2b endpoint titer [5, 14] was 40. It also gave an IgG2b endpoint titer [5, 15] of 320, an IgG2b endpoint titer [5, 16] of 320 and an IgG2b endpoint titer [5, 17] of 640. The IgG2b endpoint titer [5, 18] was 640, the IgG2b endpoint titer [5, 19] was 640 and the IgG2b endpoint titer [5, 20] was 5120. The IgG2b endpoint titer [5, 21] was 2560, the IgG2b endpoint titer [5, 22] was 5120 and the IgG2b endpoint titer [5, 23] was 1280. The IgG2b endpoint titer [5, 24] was 2560, the IgE endpoint titer [6] was 0 and the IgA endpoint titer [7] was 0.
